Measured values: patent US10676429B2, “Sulfamoyl-arylamides and the use thereof as medicaments for the treatment of hepatitis B” (priority 2012, dated 2020)

Legend:
[1] = Cytotoxicity in HepG2 cells, 4 days, Resazurin assay; conditions: human, HepG2 cells
HBV [2] = experiment: Anti-HBV activity in HepG2.117 cell line (Tet-off, intracellular HBV DNA, realtime PCR); assay type: cell-based; conditions: Hepatitis B virus, HepG2.117, 72 h, HepG2.117 cells, 3 days of treatment, intracellular HBV DNA; read-out: HepG2 117 EC50
HBV [3] = experiment: Anti-HBV activity in stable transfected HepG2.2.15 cell line (HBV DNA from secreted virions, realtime PCR); assay type: cell-based; conditions: Hepatitis B virus, HepG2.2.15, 144 h, HepG2.2.15 cells, 6 days of treatment, secreted virion HBV DNA; read-out: HepG2 2.15 EC50

Cc1cc(NC(=O)c2cccc(S(=O)(=O)NC3CCCC3)c2)ccc1C#N [Compound 16]
CC50 at 4 days [1]: 10300 nM | EC50 (HBV [2]): 2800 nM | EC50 (HBV [3]): 1210 nM

CC(C)NS(=O)(=O)c1cccc(C(=O)Nc2ccc(F)c(C(F)F)c2)c1 [Compound 96]
CC50 at 4 days [1]: > 25000 nM | EC50 (HBV [2]): 290 nM | EC50 (HBV [3]): 100 nM

CC[C@H](C)NS(=O)(=O)c1cccc(C(=O)Nc2ccc(F)cc2)c1 [Compound 71]
CC50 at 4 days [1]: > 25000 nM | EC50 (HBV [2]): 8630 nM | EC50 (HBV [3]): 750 nM

Cc1cc(NC(=O)c2cccc(S(=O)(=O)NC3(C)COC3)c2)ccc1F [Compound 97]
CC50 at 4 days [1]: > 25000 nM | EC50 (HBV [2]): 370 nM | EC50 (HBV [3]): 120 nM

Cc1cc(NC(=O)c2cccc(S(=O)(=O)N[C@@H]3CCC[C@H]3O)c2)ccc1F [Compound 173]
CC50 at 4 days [1]: > 25000 nM | EC50 (HBV [2]): 360 nM | EC50 (HBV [3]): 370 nM

Cc1cc(NC(=O)c2cccc(S(=O)(=O)NC3CCCN(C(=O)OC(C)(C)C)C3)c2)ccc1F (stereo not drawn) [Compound 155]
CC50 at 4 days [1]: > 25000 nM | EC50 (HBV [2]): 810 nM | EC50 (HBV [3]): 360 nM

Cc1cc(NC(=O)c2cccc(S(=O)(=O)NC(C)CCN3CCOCC3)c2)ccc1F (stereo not drawn) [Compound 165]
CC50 at 4 days [1]: > 25000 nM | EC50 (HBV [2]): 360 nM | EC50 (HBV [3]): 710 nM

Cc1cc(NC(=O)c2cccc(S(=O)(=O)N[C@H](C)C3CC3)c2)ccc1F [Compound 152]
CC50 at 4 days [1]: > 25000 nM | EC50 (HBV [2]): 570 nM | EC50 (HBV [3]): < 100 nM

Cc1cc(NC(=O)c2cccc(S(=O)(=O)NC(C)CN3CCN(C)CC3)c2)ccc1F (stereo not drawn) [Compound 116]
CC50 at 4 days [1]: > 25000 nM | EC50 (HBV [2]): 900 nM | EC50 (HBV [3]): 1940 nM

Cc1cc(NC(=O)c2cccc(S(=O)(=O)N[C@H]3CCOC3)c2Cl)ccc1F [Compound 124]
CC50 at 4 days [1]: > 25000 nM | EC50 (HBV [2]): 680 nM | EC50 (HBV [3]): 330 nM

CC1(NS(=O)(=O)c2ccc(Cl)c(C(=O)Nc3ccc(F)c(F)c3)c2)COC1 [Compound 234]
CC50 at 4 days [1]: > 25000 nM | EC50 (HBV [2]): 340 nM | EC50 (HBV [3]): 720 nM

Cc1cc(NC(=O)c2cccc(S(=O)(=O)N[C@@H](C)c3ccccc3)c2)ccc1F [Compound 167]
CC50 at 4 days [1]: > 25000 nM | EC50 (HBV [2]): 9840 nM | EC50 (HBV [3]): 620 nM

Cc1cc(NC(=O)c2cccc(S(=O)(=O)NC3COCC3O)c2)ccc1F (stereo not drawn) [Compound 171]
CC50 at 4 days [1]: > 25000 nM | EC50 (HBV [2]): 4390 nM | EC50 (HBV [3]): 790 nM

Cc1cc(NC(=O)c2cc(S(=O)(=O)N[C@H]3CCOC3)ccc2C)ccc1F [Compound 121]
CC50 at 4 days [1]: > 25000 nM | EC50 (HBV [2]): 130 nM | EC50 (HBV [3]): 160 nM

Cc1cc(NC(=O)c2c(Cl)ccc(S(=O)(=O)N[C@H]3CCOC3)c2Cl)ccc1F [Compound 125]
CC50 at 4 days [1]: > 25000 nM | EC50 (HBV [2]): 1150 nM | EC50 (HBV [3]): 1440 nM

CC[C@@H](C)NS(=O)(=O)c1ccc(F)c(C(=O)Nc2ccc(F)c(F)c2)c1 [Compound 100]
CC50 at 4 days [1]: > 25000 nM | EC50 (HBV [2]): 430 nM | EC50 (HBV [3]): 130 nM

O=C(Nc1ccccc1)c1cncc(S(=O)(=O)NC2CCCCC2)c1 [Compound 68]
CC50 at 4 days [1]: 68000 nM | EC50 (HBV [2]): > 25000 nM | EC50 (HBV [3]): 18600 nM

O=C(Nc1ccccc1)c1cc(S(=O)(=O)NC2CCCCC2)ccn1 [Compound 67]
CC50 at 4 days [1]: > 100000 nM | EC50 (HBV [2]): 18600 nM | EC50 (HBV [3]): 11100 nM

Cc1cc(NC(=O)c2cc(S(=O)(=O)N[C@H]3CCOC3)ccc2Br)ccc1F [Compound 237]
CC50 at 4 days [1]: > 25000 nM | EC50 (HBV [2]): 130 nM | EC50 (HBV [3]): 430 nM

Cc1cc(NC(=O)c2cccc(S(=O)(=O)N[C@H]3c4ccccc4C[C@@H]3O)c2)ccc1F [Compound 176]
CC50 at 4 days [1]: > 25000 nM | EC50 (HBV [2]): 560 nM | EC50 (HBV [3]): 620 nM

Cc1cc(NC(=O)c2cccc(S(=O)(=O)NC3CC4CCC3O4)c2)ccc1F (stereo not drawn) [Compound 128]
CC50 at 4 days [1]: > 25000 nM | EC50 (HBV [2]): 540 nM | EC50 (HBV [3]): 230 nM

Cc1ccc(S(=O)(=O)NC2(C)COC2)cc1C(=O)Nc1ccc(F)c(C(F)F)c1 [Compound 113]
CC50 at 4 days [1]: > 25000 nM | EC50 (HBV [2]): 180 nM | EC50 (HBV [3]): 150 nM

Cc1cc(NC(=O)c2cccc(S(=O)(=O)NC3CCCC3)c2)ccc1F [Compound 11]
CC50 at 4 days [1]: 19600 nM | EC50 (HBV [2]): 420 nM | EC50 (HBV [3]): 100 nM
